Measured values as given in US20210361616A1, “AMELIORATING AGENT FOR FEMALE-SPECIFIC PHYSICAL AND/OR MENTAL UNPLEASANT SYMPTOM” (OTSUKA PHARMACEUTICAL CO., LTD., priority 2016, published 2021).

Assays:
Assay type in all cases: in vivo, human
[1] = test system: people who had any unpleasant symptom before menstruation; assay: Combined administration test of γ-tocopherol and equol, MDQ questionnaire; settings: suggested by the results of Test Example 1 and Test Example 2; equol alone not administered
[2] = test system: people who had fluid retention before menstruation; assay: Administration test of γ-tocopherol alone, VAS questionnaire; settings: 360 mg/day γ-tocopherol, 7 days, 25 people, placebo-controlled double-blind
Method: (§1) Twenty-five people who had fluid retention before menstruation were subjected to randomly-assigned placebo-controlled double-blind tested group comparative study. […] An evaluation period is between the morning of the 6th day after the start of the continuous ingestion and the morning of the 8th day […]. Evaluation by questionnaires was conducted before every meal. An average value of variations from a start value of the evaluation was obtained to compare the tested group with the placebo group.
(§2) The evaluation by questionnaires was conducted by VAS (visual analog scale) and MDQ (menstrual distress questionnaire).
(§3) For VAS, the subjects indicated their symptoms about each questionnaire on a scale of “0 mm” (no symptom) to “100 mm” (the symptom is very strong/the symptom affects daily living), and an average value of variations from a start value of the evaluation was calculated. For MDQ, the subjects answered each questionnaire on a six-point scale of “0” (no symptom) to “5” (the symptom is very strong/the symptom affects daily living).

[3] = test system: people who had fluid retention before menstruation; assay: Administration test of γ-tocopherol alone, MDQ questionnaire; settings: 360 mg/day γ-tocopherol, 7 days, 25 people
Method: as §1, §2, §3

Structure (SMILES) | effects of equol alone on "pain", "negative emotion", "concentration ability" and "change in behavior" [1] | VAS "annoyance or irritability" (mental unpleasant symptoms) as compared with a placebo group [2] | VAS leg swelling (physical unpleasant symptoms) as compared with a placebo group [2] | proportion of people who had decreased MDQ scores as compared with the placebo group, "change in behavior" [3] [%] | proportion of people who had decreased MDQ scores as compared with the placebo group, item "concentration ability" [3] [%] | proportion of people who had decreased MDQ scores as compared with the placebo group, item "fluid retention" [3] [%] | proportion of people who had decreased MDQ scores as compared with the placebo group, item "negative emotion" [3] [%] | proportion of people who had decreased MDQ scores as compared with the placebo group, item "pain" [3] [%]
Oc1ccc(C2COc3cc(O)ccc3C2)cc1 (centres unmarked) [equol] | has effects | – | – | – | – | – | – | –
Cc1c(O)cc2c(c1C)O[C@](C)(CCC[C@H](C)CCC[C@H](C)CCCC(C)C)CC2 [γ-tocopherol] | – | significant amelioration | significant amelioration | 32.0 | 36.0 | 56.0 | 28.0 | 44.0
